{"source": "PubChem BioAssay AID1259407", "about": "(Chemical Carcinogenesis Research Information System (CCRIS), 2018)", "test_system": "CCRIS mutagenicity, Ames/micronucleus/aberration tests", "experiment": "CCRIS mutagenicity studies", "key": {"[1]": {"conditions": "Test System: AMES SALMONELLA TYPHIMURIUM, Strain/Indicator: TA100, Metabolic Activation: NONE, Method: PREINCUBATION"}, "[2]": {"conditions": "Test System: AMES SALMONELLA TYPHIMURIUM, Strain/Indicator: TA98, Metabolic Activation: NONE, Method: STANDARD PLATE"}, "[3]": {"conditions": "Test System: AMES SALMONELLA TYPHIMURIUM, Strain/Indicator: TA100, Metabolic Activation: NONE, Method: STANDARD PLATE"}, "[4]": {"conditions": "Test System: AMES SALMONELLA TYPHIMURIUM, Strain/Indicator: TA1537, Metabolic Activation: NONE, Method: STANDARD PLATE"}, "[5]": {"conditions": "Test System: AMES SALMONELLA TYPHIMURIUM, Strain/Indicator: TA1535, Metabolic Activation: NONE, Method: STANDARD PLATE"}}, "note": "Active and inactive are the calls of the source. How the calls were made is not given here.", "data": [{"compound": "NC(=O)Nc1nc2ccccc2[nH]1", "values": [{"measurement": "mutagenic call", "setting": "Test System: AMES SALMONELLA TYPHIMURIUM, Strain/Indicator: TA98, Metabolic Activation: HAMSTER, LIVER, S-9, AROCLOR 1254 (30%), Method: PREINCUBATION", "value": "active; positive"}, {"measurement": "mutagenic call", "setting": "Test System: AMES SALMONELLA TYPHIMURIUM, Strain/Indicator: TA98, Metabolic Activation: NONE, Method: PREINCUBATION", "value": "active; positive"}, {"measurement": "mutagenic call", "setting": "Test System: AMES SALMONELLA TYPHIMURIUM, Strain/Indicator: TA98, Metabolic Activation: RAT, LIVER, S-9, AROCLOR 1254 (30%), Method: PREINCUBATION", "value": "active; positive"}, {"measurement": "mutagenic call", "setting": "Test System: AMES SALMONELLA TYPHIMURIUM, Strain/Indicator: TA100, Metabolic Activation: HAMSTER, LIVER, S-9, AROCLOR 1254 (30%), Method: PREINCUBATION", "value": "inactive; negative"}, {"measurement": "mutagenic call", "setting": "[1]", "value": "inactive; negative"}, {"measurement": "mutagenic call", "setting": "Test System: AMES SALMONELLA TYPHIMURIUM, Strain/Indicator: TA100, Metabolic Activation: RAT, LIVER, S-9, AROCLOR 1254 (30%), Method: PREINCUBATION", "value": "inactive; negative"}]}, {"compound": "Cc1cc([N+](=O)[O-])c(C)c2c1[nH]c1ccccc12", "values": [{"measurement": "mutagenic call", "setting": "[2]", "value": "active; positive"}, {"measurement": "mutagenic call", "setting": "Test System: AMES SALMONELLA TYPHIMURIUM, Strain/Indicator: TA98, Metabolic Activation: RAT LIVER S-9, AROCLOR 1254, Method: STANDARD PLATE", "value": "active; positive"}, {"measurement": "mutagenic call", "setting": "[3]", "value": "inactive; negative"}, {"measurement": "mutagenic call", "setting": "Test System: AMES SALMONELLA TYPHIMURIUM, Strain/Indicator: TA100, Metabolic Activation: RAT LIVER S-9, AROCLOR 1254, Method: STANDARD PLATE", "value": "inactive; negative"}, {"measurement": "mutagenic call", "setting": "[4]", "value": "inactive; negative"}, {"measurement": "mutagenic call", "setting": "Test System: AMES SALMONELLA TYPHIMURIUM, Strain/Indicator: TA1537, Metabolic Activation: RAT LIVER S-9, AROCLOR 1254, Method: STANDARD PLATE", "value": "active; positive"}, {"measurement": "mutagenic call", "setting": "Test System: AMES SALMONELLA TYPHIMURIUM, Strain/Indicator: TA1977, Metabolic Activation: NONE, Method: STANDARD PLATE", "value": "active; positive"}, {"measurement": "mutagenic call", "setting": "Test System: AMES SALMONELLA TYPHIMURIUM, Strain/Indicator: TA1977, Metabolic Activation: RAT LIVER S-9, AROCLOR 1254, Method: STANDARD PLATE", "value": "active; positive"}]}, {"compound": "C[Si](C)(C)CN(N=O)C(N)=O", "values": [{"measurement": "mutagenic call", "setting": "[1]", "value": "active; positive"}, {"measurement": "mutagenic call", "setting": "Test System: CHINESE HAMSTER V-79, Strain/Indicator: V-79/OUABAIN, Metabolic Activation: NONE", "value": "active; positive"}, {"measurement": "mutagenic call", "setting": "Test System: E. COLI, Strain/Indicator: H/R30R, Metabolic Activation: NONE, Method: PREINCUBATION", "value": "active; positive"}, {"measurement": "mutagenic call", "setting": "Test System: E. COLI, Strain/Indicator: HS30R UVRA, Metabolic Activation: NONE, Method: PREINCUBATION", "value": "active; positive"}, {"measurement": "mutagenic call", "setting": "Test System: E. COLI, Strain/Indicator: NG30 RECA, Metabolic Activation: NONE, Method: PREINCUBATION", "value": "active; positive"}, {"measurement": "mutagenic call", "setting": "Test System: E. COLI, Strain/Indicator: O16 POLA, Metabolic Activation: NONE, Method: PREINCUBATION", "value": "active; positive"}]}, {"compound": "C[C@@H]1C[C@@]2(O[C@H]2C)C(=O)O[C@@H]2CCN3CC=C(COC(=O)[C@]1(C)O)[C@H]23", "values": [{"measurement": "mutagenic call", "setting": "Test System: UDS RAT HEPATOCYTES, Strain/Indicator: THY INCORP, Metabolic Activation: NONE, Method: AUTORADIOGRAPHY", "value": "active; positive"}]}, {"compound": "ONc1ccc(Cl)cc1", "values": [{"measurement": "mutagenic call", "setting": "[2]", "value": "inactive; negative"}, {"measurement": "mutagenic call", "setting": "[3]", "value": "inactive; negative"}, {"measurement": "mutagenic call", "setting": "[5]", "value": "inactive; negative"}, {"measurement": "mutagenic call", "setting": "Test System: E. COLI, Strain/Indicator: WP2 UVRA(P), Metabolic Activation: NONE, Method: STANDARD PLATE", "value": "inactive; negative"}, {"measurement": "mutagenic call", "setting": "Test System: E. COLI, Strain/Indicator: WP2 UVRA, Metabolic Activation: NONE, Method: FLUCTUATION TEST", "value": "inactive; negative"}, {"measurement": "mutagenic call", "setting": "Test System: E. COLI, Strain/Indicator: WP2 UVRA, Metabolic Activation: NONE, Method: STANDARD PLATE", "value": "inactive; negative"}]}, {"compound": "Cc1ccc(OS(=O)(=O)c2cccc3cccnc23)c([N+](=O)[O-])c1", "values": [{"measurement": "mutagenic call", "setting": "[2]", "value": "active; positive"}, {"measurement": "mutagenic call", "setting": "Test System: AMES SALMONELLA TYPHIMURIUM, Strain/Indicator: TA98, Metabolic Activation: RAT, LIVER, S-9, AROCLOR 1254, Method: STANDARD PLATE", "value": "active; positive"}, {"measurement": "mutagenic call", "setting": "[3]", "value": "active; positive"}, {"measurement": "mutagenic call", "setting": "Test System: AMES SALMONELLA TYPHIMURIUM, Strain/Indicator: TA100, Metabolic Activation: RAT, LIVER, S-9, AROCLOR 1254, Method: STANDARD PLATE", "value": "active; positive"}, {"measurement": "mutagenic call", "setting": "[5]", "value": "inactive; negative"}, {"measurement": "mutagenic call", "setting": "Test System: AMES SALMONELLA TYPHIMURIUM, Strain/Indicator: TA1535, Metabolic Activation: RAT, LIVER, S-9, AROCLOR 1254, Method: STANDARD PLATE", "value": "inactive; negative"}, {"measurement": "mutagenic call", "setting": "[4]", "value": "active; positive"}, {"measurement": "mutagenic call", "setting": "Test System: AMES SALMONELLA TYPHIMURIUM, Strain/Indicator: TA1537, Metabolic Activation: RAT, LIVER, S-9, AROCLOR 1254, Method: STANDARD PLATE", "value": "active; positive"}]}, {"compound": "[CH3][Sn]([Cl])([Cl])[Cl]", "values": [{"measurement": "mutagenic call", "setting": "Test System: AMES SALMONELLA TYPHIMURIUM, Strain/Indicator: TA98, Metabolic Activation: NONE, Method: SUSPENSION/PLATE", "value": "inactive; negative"}, {"measurement": "mutagenic call", "setting": "Test System: AMES SALMONELLA TYPHIMURIUM, Strain/Indicator: TA100, Metabolic Activation: NONE, Method: SUSPENSION/PLATE", "value": "inactive; negative"}]}]}
